Holding throughout (assay type): cell-based
The target of experiment [1] is hKv1.3 (Homo sapiens, UniProt P22001). Nature of the experiment: cell-based. The note with it: Kv1.3 (IWQ) IC50 (nM, Avg).
In experiment [2] the test system is IL-2 secretion from T cells in human whole blood. To be noted: read-out: WB (IL-2) IC50 (nM, Avg).
In experiment [3] the test system is IFN-g secretion from T cells in human whole blood.
[4] abbreviates: read-out: WB (IFNg) IC5- (nM, Avg).
[5] abbreviates: read-out: WB (IFNg) IC50 (nM, Avg).

Where two headings read alike, the source gives them in different places.

Sequence of hKv1.3 (P22001 whole entry): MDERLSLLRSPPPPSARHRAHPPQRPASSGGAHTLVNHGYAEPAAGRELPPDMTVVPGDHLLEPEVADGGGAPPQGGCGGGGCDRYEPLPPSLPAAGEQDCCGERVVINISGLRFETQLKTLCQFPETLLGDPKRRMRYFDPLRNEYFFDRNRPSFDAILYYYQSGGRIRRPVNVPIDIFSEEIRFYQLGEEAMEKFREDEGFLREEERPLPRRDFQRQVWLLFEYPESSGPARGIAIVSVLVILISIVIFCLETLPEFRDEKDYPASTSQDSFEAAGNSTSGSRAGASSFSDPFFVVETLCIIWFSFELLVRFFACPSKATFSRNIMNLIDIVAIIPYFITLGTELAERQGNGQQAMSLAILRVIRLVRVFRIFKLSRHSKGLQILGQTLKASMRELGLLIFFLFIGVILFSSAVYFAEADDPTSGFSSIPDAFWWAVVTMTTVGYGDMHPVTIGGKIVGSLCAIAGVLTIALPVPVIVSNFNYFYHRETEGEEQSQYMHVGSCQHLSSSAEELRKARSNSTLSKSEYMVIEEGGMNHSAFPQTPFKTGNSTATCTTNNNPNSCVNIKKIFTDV

As for `CC[C@H](C)[C@@H]1NC(=O)[C@@H](NC(=O)[C@H](CO)NC(=O)[C@@H](N)CCCNC(=N)N)CSSC[C@@H](C(=O)O)NC(=O)[C@H]([C@@H](C)O)NC(=O)CNC(=O)[C@@H]2CSSC[C@@H]3NC(=O)[C@H](CCC(N)=O)NC(=O)[C@H](Cc4ccccc4)NC(=O)[C@H](C)NC(=O)[C@H]([C@@H](C)O)NC(=O)[C@H](CSSC[C@H](NC(=O)[C@H](Cc4ccccc4)NC(=O)[C@H](CO)NC(=O)[C@H](CCC(=O)O)NC(=O)[C@H](CCCNC(=N)N)NC(=O)[C@H](Cc4ccc(O)cc4)NC(=O)[C@H](CCCCN)NC(=O)[C@H](CCSC)NC(=O)[C@H](CO)NC(=O)[C@H](Cc4c[nH]cn4)NC(=O)[C@H](CCCCN)NC3=O)C(=O)N[C@@H](CCCNC(=N)N)C(=O)N[C@@H](CCCCN)C(=O)N[C@@H]([C@@H](C)O)C(=O)N2)NC(=O)[C@H](CCCNC(=N)N)NC(=O)[C@H](CO)NC(=O)[C@H](CCCCN)NC(=O)[C@@H]2CCCN2C(=O)[C@H]([C@@H](C)CC)NC(=O)[C@H]([C@@H](C)O)NC(=O)[C@H](CC(=O)O)NC1=O` [[Glu25]ShK], the values for the IC50 in experiment [1], in experiment [2] and in experiment [3] (setting [4]) were 0.24 nM, 0.494 nM and 0.678 nM, respectively.
On the same counts, the results for `CC[C@H](C)[C@@H]1NC(=O)[C@@H](NC(=O)[C@H](CO)NC(=O)[C@@H](N)CCCNC(=N)N)CSSC[C@@H](C(=O)O)NC(=O)[C@H]([C@@H](C)O)NC(=O)CNC(=O)[C@@H]2CSSC[C@@H]3NC(=O)[C@H](CCC(N)=O)NC(=O)[C@H](Cc4ccccc4)NC(=O)[C@H](C)NC(=O)[C@H]([C@@H](C)O)NC(=O)[C@H](CSSC[C@H](NC(=O)[C@H](Cc4ccccc4)NC(=O)[C@H](CCC(=O)O)NC(=O)[C@H](CC(C)C)NC(=O)[C@H](CCCNC(=N)N)NC(=O)[C@H](Cc4ccc(O)cc4)NC(=O)[C@H](CCCCN)NC(=O)[C@H](CCSC)NC(=O)[C@H](CO)NC(=O)[C@H](Cc4c[nH]cn4)NC(=O)[C@H](CCCCN)NC3=O)C(=O)N[C@@H](CCCNC(=N)N)C(=O)N[C@@H](CCCCN)C(=O)N[C@@H]([C@@H](C)O)C(=O)N2)NC(=O)[C@H](CCCNC(=N)N)NC(=O)[C@H](CO)NC(=O)[C@H](CCCCN)NC(=O)[C@@H]2CCCN2C(=O)[C@H]([C@@H](C)CC)NC(=O)[C@H]([C@@H](C)O)NC(=O)[C@H](CC(=O)O)NC1=O` [[Glu26]ShK] are 0.317 nM, 0.202 nM and 0.4 nM.
For `CC[C@H](C)[C@@H]1NC(=O)[C@@H](NC(=O)[C@H](CO)NC(=O)[C@@H](N)CCCNC(=N)N)CSSC[C@@H](C(=O)O)NC(=O)[C@H]([C@@H](C)O)NC(=O)CNC(=O)[C@@H]2CSSC[C@@H]3NC(=O)[C@H](CCC(N)=O)NC(=O)[C@H](Cc4ccccc4)NC(=O)[C@H](C)NC(=O)[C@H]([C@@H](C)O)NC(=O)[C@H](CSSC[C@H](NC(=O)[C@H](Cc4ccccc4)NC(=O)[C@H](CO)NC(=O)[C@H](CC(C)C)NC(=O)[C@H](CCCNC(=N)N)NC(=O)[C@H](Cc4ccc(O)cc4)NC(=O)[C@H](CCCCN)NC(=O)[C@H](CCSC)NC(=O)[C@H](CO)NC(=O)[C@H](Cc4c[nH]cn4)NC(=O)[C@H](CCCCN)NC3=O)C(=O)N[C@@H](CCC(=O)O)C(=O)N[C@@H](CCCCN)C(=O)N[C@@H]([C@@H](C)O)C(=O)N2)NC(=O)[C@H](CCCNC(=N)N)NC(=O)[C@H](CO)NC(=O)[C@H](CCCCN)NC(=O)[C@@H]2CCCN2C(=O)[C@H]([C@@H](C)CC)NC(=O)[C@H]([C@@H](C)O)NC(=O)[C@H](CC(=O)O)NC1=O` [[Glu29]ShK], in that order: 0.142 nM, 0.73 nM and 1.96 nM.
In the case of `CC[C@H](C)[C@@H]1NC(=O)[C@@H](NC(=O)[C@H](CO)NC(=O)[C@@H](N)CCCNC(=N)N)CSSC[C@@H](C(=O)O)NC(=O)[C@H]([C@@H](C)O)NC(=O)CNC(=O)[C@@H]2CSSC[C@@H]3NC(=O)[C@H](CCC(N)=O)NC(=O)[C@H](Cc4ccccc4)NC(=O)[C@H](C)NC(=O)[C@H]([C@@H](C)O)NC(=O)[C@H](CSSC[C@H](NC(=O)[C@H](Cc4ccccc4)NC(=O)[C@H](CO)NC(=O)[C@H](CC(C)C)NC(=O)[C@H](CCCNC(=N)N)NC(=O)[C@H](Cc4ccc(O)cc4)NC(=O)[C@H](CCCCN)NC(=O)[C@H](CCSC)NC(=O)[C@H](CO)NC(=O)[C@H](Cc4c[nH]cn4)NC(=O)[C@H](CCCCN)NC3=O)C(=O)N[C@@H](CCCNC(=N)N)C(=O)N[C@@H](CCC(=O)O)C(=O)N[C@@H]([C@@H](C)O)C(=O)N2)NC(=O)[C@H](CCCNC(=N)N)NC(=O)[C@H](CO)NC(=O)[C@H](CCCCN)NC(=O)[C@@H]2CCCN2C(=O)[C@H]([C@@H](C)CC)NC(=O)[C@H]([C@@H](C)O)NC(=O)[C@H](CC(=O)O)NC1=O` [[Glu30]ShK], the IC50 worked out at 0.272 nM in experiment [1], 0.019 nM in experiment [2] and 0.043 nM in experiment [3] (setting [4]).
For `CC[C@H](C)[C@@H]1NC(=O)[C@@H](NC(=O)[C@H](CO)NC(=O)[C@@H](N)CCCNC(=N)N)CSSC[C@@H](C(=O)O)NC(=O)[C@H]([C@@H](C)O)NC(=O)CNC(=O)[C@@H]2CSSC[C@@H]3NC(=O)[C@H](CCC(N)=O)NC(=O)[C@H](Cc4ccccc4)NC(=O)[C@H](C)NC(=O)[C@H]([C@@H](C)O)NC(=O)[C@H](CSSC[C@H](NC(=O)[C@H](Cc4ccccc4)NC(=O)[C@H](CO)NC(=O)[C@H](CC(C)C)NC(=O)[C@H](CCCNC(=N)N)NC(=O)[C@H](Cc4ccc(O)cc4)NC(=O)[C@H](CCCCN)NC(=O)[C@H](CCSC)NC(=O)[C@H](CO)NC(=O)[C@H](Cc4c[nH]cn4)NC(=O)[C@H](CCCCN)NC3=O)C(=O)N[C@@H](CCCNC(=N)N)C(=O)N[C@@H](CCCCN)C(=O)N[C@@H](CCC(=O)O)C(=O)N2)NC(=O)[C@H](CCCNC(=N)N)NC(=O)[C@H](CO)NC(=O)[C@H](CCCCN)NC(=O)[C@@H]2CCCN2C(=O)[C@H]([C@@H](C)CC)NC(=O)[C@H]([C@@H](C)O)NC(=O)[C@H](CC(=O)O)NC1=O` [[Glu31]ShK], in that order: 0.22 nM, 0.242 nM and 0.309 nM.
Take `CCCC[C@@H]1NC(=O)[C@H](CO)NC(=O)[C@H](Cc2c[nH]cn2)NC(=O)[C@H](CCCCN)NC(=O)[C@@H]2CSSC[C@@H]3NC(=O)[C@H]([C@@H](C)O)NC(=O)[C@H](CCCCN)NC(=O)[C@H](CCCNC(=N)N)NC(=O)[C@H](CSSC[C@H](NC(=O)[C@H](CCCNC(=N)N)NC(=O)[C@H](CO)NC(=O)[C@H](CCCCN)NC(=O)[C@@H]4CCCN4C(=O)[C@H]([C@@H](C)CC)NC(=O)[C@H]([C@@H](C)O)NC(=O)[C@H](CC(=O)O)NC(=O)[C@H]([C@@H](C)CC)NC(=O)[C@@H](NC(=O)[C@H](CO)NC(=O)[C@@H](N)CCCNC(=N)N)CSSC[C@@H](C(N)=O)NC(=O)[C@H]([C@@H](C)O)NC(=O)CNC3=O)C(=O)N[C@@H]([C@@H](C)O)C(=O)N[C@@H](C)C(=O)N[C@@H](Cc3ccccc3)C(=O)N[C@@H](Cc3c[nH]cn3)C(=O)N2)NC(=O)[C@H](Cc2ccccc2)NC(=O)[C@H](CO)NC(=O)[C@H](CC(C)C)NC(=O)[C@H](CCCNC(=N)N)NC(=O)[C@H](Cc2ccc(O)cc2)NC(=O)[C@H](CCCCN)NC1=O` [[His, Nle21]ShK-amide]: the IC50 in experiment [1] came out at 0.139 nM; in experiment [2], 0.24 nM; in experiment [3] (setting [5]) it was 0.148 nM.
With `CC[C@H](C)[C@@H]1NC(=O)[C@@H](NC(=O)[C@H](CO)NC(=O)[C@@H](N)CCCCN)CSSC[C@@H](C(=O)O)NC(=O)[C@H]([C@@H](C)O)NC(=O)CNC(=O)[C@@H]2CSSC[C@@H]3NC(=O)[C@H](CCC(N)=O)NC(=O)[C@H](Cc4ccccc4)NC(=O)[C@H](C)NC(=O)[C@H]([C@@H](C)O)NC(=O)[C@H](CSSC[C@H](NC(=O)[C@H](Cc4ccccc4)NC(=O)[C@H](CO)NC(=O)[C@H](CC(C)C)NC(=O)[C@H](CCCNC(=N)N)NC(=O)[C@H](Cc4ccc(O)cc4)NC(=O)[C@H](CCCCN)NC(=O)[C@H](CCSC)NC(=O)[C@H](CO)NC(=O)[C@H](Cc4c[nH]cn4)NC(=O)[C@H](CCCCN)NC3=O)C(=O)N[C@@H](CCCNC(=N)N)C(=O)N[C@@H](CCCCN)C(=O)N[C@@H]([C@@H](C)O)C(=O)N2)NC(=O)[C@H](CCCNC(=N)N)NC(=O)[C@H](CO)NC(=O)[C@H](CCCCN)NC(=O)[C@@H]2CCCN2C(=O)[C@H]([C@@H](C)CC)NC(=O)[C@H]([C@@H](C)O)NC(=O)[C@H](CC(=O)O)NC1=O` [[Lys1]ShK], the IC50 in experiment [1] is 0.158 nM; in experiment [2] it was 0.035 nM; in experiment [3] (setting [5]), 0.073 nM.
On to `CC[C@H](C)[C@@H]1NC(=O)[C@@H](NC(=O)[C@H](CCCCN)NC(=O)[C@@H](N)CCCNC(=N)N)CSSC[C@@H](C(=O)O)NC(=O)[C@H]([C@@H](C)O)NC(=O)CNC(=O)[C@@H]2CSSC[C@@H]3NC(=O)[C@H](CCC(N)=O)NC(=O)[C@H](Cc4ccccc4)NC(=O)[C@H](C)NC(=O)[C@H]([C@@H](C)O)NC(=O)[C@H](CSSC[C@H](NC(=O)[C@H](Cc4ccccc4)NC(=O)[C@H](CO)NC(=O)[C@H](CC(C)C)NC(=O)[C@H](CCCNC(=N)N)NC(=O)[C@H](Cc4ccc(O)cc4)NC(=O)[C@H](CCCCN)NC(=O)[C@H](CCSC)NC(=O)[C@H](CO)NC(=O)[C@H](Cc4c[nH]cn4)NC(=O)[C@H](CCCCN)NC3=O)C(=O)N[C@@H](CCCNC(=N)N)C(=O)N[C@@H](CCCCN)C(=O)N[C@@H]([C@@H](C)O)C(=O)N2)NC(=O)[C@H](CCCNC(=N)N)NC(=O)[C@H](CO)NC(=O)[C@H](CCCCN)NC(=O)[C@@H]2CCCN2C(=O)[C@H]([C@@H](C)CC)NC(=O)[C@H]([C@@H](C)O)NC(=O)[C@H](CC(=O)O)NC1=O` [[Lys2]ShK], for which the IC50 was 0.149 nM in experiment [1], 0.099 nM in experiment [2] and 0.093 nM in experiment [3] (setting [5]).
